One assay addresses CDK2 (UniProt P24941). Nature of the assay: Enzyme Assay. The conditions noted are these: for inhibition: concentration not given here.
The target of the next assay is CDK2 (human) (UniProt P24941). The assay can be described thus: Cell-Based Assay.

Take `CCCCC[C@H](O)C#Cc1cccc2c1/C(=C/c1[nH]ccc1OC)C(=O)N2`: the IC50 against CDK2 is below 4 µM.
Take `CCC(O)C#Cc1cccc2c1/C(=C/c1[nH]ccc1OC)C(=O)N2` (configuration not stated): at CDK2, the IC50 is below 4 µM.
In the case of `CCOC(=O)C(CC#Cc1c(F)ccc2c1/C(=C/c1[nH]cnc1C)C(=O)N2)NC(C)=O` (configuration not stated), the IC50 against CDK2 is below 4 µM; against CDK2 (human) (mda-mb-435) it was below 3.5 µM.
Consider `COc1cc[nH]c1/C=C1\C(=O)Nc2cccc(C#CC3(O)CCCCC3)c21`, for which the 50% inhibitory concentration (IC50) on CDK2 was below 4 µM.
On to `COc1cc[nH]c1/C=C1\C(=O)Nc2cccc(C#CCCO)c21`, for which, at CDK2, the IC50 was below 4 µM.
Take `COc1cc[nH]c1/C=C1\C(=O)Nc2ccc(N)c(C#CCO)c21`: the IC50 against CDK2 was below 4 µM.
Turning to `COc1cc[nH]c1/C=C1\C(=O)Nc2cccc(C#CCN)c21`, on CDK2, the IC50 is below 4 µM.
With `CNCC#Cc1cccc2c1/C(=C/c1[nH]ccc1OC)C(=O)N2`, on CDK2, the IC50 was below 4 µM.
Still for that read-out and setting: the result for `COc1cc[nH]c1/C=C1\C(=O)Nc2cccc(C#CCC(C(=O)O)C(=O)O)c21` reads below 4 µM; that for `COc1cc[nH]c1/C=C1\C(=O)Nc2cccc(C#CCCC(=O)O)c21`, below 4 µM; that for `COC(=O)NCC#Cc1cccc2c1/C(=C/c1[nH]ccc1OC)C(=O)N2`, below 4 µM.
The compound `COc1cc[nH]c1/C=C1\C(=O)Nc2ccc(NC(=O)Cc3cccs3)c(C#CCCC(=O)O)c21` yielded an IC50 at CDK2 below 4 µM.
In turn, `COc1cc[nH]c1/C=C1\C(=O)Nc2cccc(C#CC(C)(C)O)c21` yielded a half-maximal inhibitory concentration (IC50) against CDK2 below 4 µM.
`CNCC#Cc1c(F)ccc2c1/C(=C/c1[nH]cnc1C)C(=O)N2`: the IC50 against CDK2 was below 4 µM; at CDK2 (human) (sw480), below 1 µM.
As to `CCC(O)C#Cc1c([N+](=O)[O-])ccc2c1/C(=C/c1[nH]cnc1C)C(=O)N2` (configuration not stated), the IC50 against CDK2 was below 4 µM; against CDK2 (human) (mda-mb-435), below 3.5 µM; against CDK2 (human) (sw480) it was below 1 µM.
Take `COc1cc[nH]c1/C=C1\C(=O)Nc2cccc(C#CCO)c21`: the IC50 against CDK2 is below 4 µM.
For `COc1cc[nH]c1/C=C1\C(=O)Nc2cccc(C#CCCCCO)c21`, the IC50 against CDK2 is below 4 µM.
Compound `Cc1nc[nH]c1/C=C1\C(=O)Nc2ccc(F)c(C#CCNC(N)=O)c21` gave an IC50 against CDK2 below 4 µM.
On to `Cc1nc[nH]c1/C=C1\C(=O)Nc2ccc(F)c(C#CCN(C)C)c21`, for which the IC50 at CDK2 is below 4 µM.
Consider `COC(=O)CCCC#Cc1cccc2c1/C(=C/c1[nH]ccc1OC)C(=O)N2`, for which the IC50 on CDK2 was below 4 µM.
Regarding `Cc1nc[nH]c1/C=C1\C(=O)Nc2ccc(F)c(C#CCC(C)O)c21` (configuration not stated), the IC50 is below 4 µM on CDK2 and below 3.5 µM against CDK2 (human) (mda-mb-435).
On to `CCCCCC(O)C#Cc1cccc2c1/C(=C/c1[nH]ccc1OC)C(=O)N2` (configuration not stated), for which the IC50 against CDK2 is below 4 µM.
As for `COc1cc[nH]c1/C=C1\C(=O)Nc2cccc(C#CCNCc3ccccc3)c21`, on CDK2, the IC50 was below 4 µM.
With `COC(=O)CCC#Cc1c([N+](=O)[O-])ccc2c1/C(=C/c1[nH]ccc1OC)C(=O)N2`, the inhibition on CDK2 was above 60%.
At CDK2, `COc1cc[nH]c1/C=C1\C(=O)Nc2cccc(C#CCCCC(=O)O)c21` registered an IC50 below 4 µM.
`CCC(N)(C#Cc1c(F)ccc2c1/C(=C/c1[nH]cnc1C)C(=O)N2)CC`: the IC50 against CDK2 (human) (sw480) is below 1 µM.
In the case of `COC(=O)NCC#Cc1c(F)ccc2c1/C(=C/c1[nH]cnc1C)C(=O)N2`, on CDK2, the inhibition was above 90%. The compound further returned an IC50 against CDK2 (human) (mda-mb-435) below 3.5 µM.
`CNC(=O)OCC#Cc1cccc2c1/C(=C/c1[nH]ccc1OC)C(=O)N2`: on CDK2, the IC50 is below 4 µM.
The compound `COc1cc[nH]c1/C=C1\C(=O)Nc2cccc(C#CCCC(N)=O)c21` registered an IC50 against CDK2 below 4 µM.
`COc1cc[nH]c1/C=C1\C(=O)Nc2cccc(C#CCOC(N)=O)c21` showed an IC50 against CDK2 below 4 µM.
Compound `COc1cc[nH]c1/C=C1\C(=O)Nc2cccc(C#CCCCC(N)=O)c21` had an IC50 against CDK2 below 4 µM.
`COC(=O)CCC#Cc1cccc2c1/C(=C/c1[nH]ccc1OC)C(=O)N2` returned an IC50 on CDK2 below 4 µM.
For the compound `COc1cc[nH]c1/C=C1\C(=O)Nc2cccc(C#CC3(O)CCCC3)c21`, the IC50 on CDK2 was below 4 µM.
The compound `Cc1nc[nH]c1/C=C1\C(=O)Nc2ccc(F)c(C#CCN3CCOCC3)c21` had an IC50 at CDK2 below 4 µM.
For `COc1cc[nH]c1/C=C1\C(=O)Nc2ccc(NC(=O)c3ccncc3)c(C#CCO)c21`, the IC50 at CDK2 was below 4 µM.
With `CCN(CC)CC#Cc1c(F)ccc2c1/C(=C/c1[nH]cnc1C)C(=O)N2`, the IC50 at CDK2 is below 4 µM.
The same measure, in the same setting: with `Cc1nc[nH]c1/C=C1\C(=O)Nc2ccc(F)c(C#CCOC(N)=O)c21` the figure was below 4 µM.
On to `CCC(O)C#Cc1c(F)ccc2c1/C(=C/c1[nH]cnc1C)C(=O)N2` (configuration not stated), for which the figures for the IC50 on CDK2, against CDK2 (human) (mda-mb-435) and on CDK2 (human) (sw480) were below 4 µM, below 3.5 µM and below 1 µM, respectively.
The compound `COc1cc[nH]c1/C=C1\C(=O)Nc2cccc(C#CCCCO)c21` returned an IC50 against CDK2 below 4 µM.
At CDK2, `COC(=O)CCC#Cc1c(N)ccc2c1/C(=C/c1[nH]ccc1OC)C(=O)N2` displayed an IC50 below 4 µM.
For `COc1cc[nH]c1/C=C1\C(=O)Nc2ccc([N+](=O)[O-])c(C#CCO)c21`, the inhibition on CDK2 was above 90%.
On CDK2, `Cc1nc[nH]c1/C=C1\C(=O)Nc2ccc(F)c(C#CCO)c21` registered an IC50 below 4 µM.
At CDK2, `COC(=O)C(CC#Cc1cccc2c1/C(=C/c1[nH]ccc1OC)C(=O)N2)C(=O)OC` had an IC50 below 4 µM.
Compound `COc1cc[nH]c1/C=C1\C(=O)Nc2cccc(C#CC(C)(O)CC(C)C)c21` (configuration not stated) came in with an IC50 on CDK2 below 4 µM.
The same measure, in the same setting: the result for `C#CCOCCO` reads below 4 µM.
The same measure, in the same setting: the result for `CCCC(C)(O)C#Cc1cccc2c1/C(=C/c1[nH]ccc1OC)C(=O)N2` (configuration not stated) reads below 4 µM.
As for `CCC(C)(O)C#Cc1cccc2c1/C(=C/c1[nH]ccc1OC)C(=O)N2` (configuration not stated), the IC50 against CDK2 is below 4 µM.
On CDK2, `Cc1nc[nH]c1/C=C1\C(=O)Nc2ccc(F)c(C#CC(C)(C)N)c21` returned an IC50 below 4 µM.
As for `COCC#Cc1cccc2c1/C(=C/c1[nH]ccc1OC)C(=O)N2`, at CDK2, the IC50 is below 4 µM.

For the origin of these results see the Kinase Knowledgebase extract (Sharma et al. 2016).
